US7868181B2, “Compounds” (AstraZeneca AB, priority 2007, dated 2011)

Tests used:
aldose reductase = molecular target: T1, aldose reductase (Rattus norvegicus, UniProt P07943); assay: comparative aldose reductase activity determination (MDS Pharma Services); type: biochemical; conditions: carried out by MDS Pharma Services
T1 construct: MDS Pharma Services - Taiwan Ltd (contract laboratory that ran the assay)
Protocol: A comparative aldose reductase activity determination was carried out by the company MDS Pharma Services—Taiwan Ltd; the results of that study is set forth in Table 1 below.

human VR1 = molecular target: T2, human VR1 (Homo sapiens, UniProt Q8NER1); assay: hVR1 FLIPR screening assay, IC50 determination (capsaicin); type: cell-based; conditions: CHO cells stably expressing hVR1; agonist capsaicin
T2 construct: expressed in transfected cells; host or cells: CHO cells
T2 sequence (Q8NER1 whole entry): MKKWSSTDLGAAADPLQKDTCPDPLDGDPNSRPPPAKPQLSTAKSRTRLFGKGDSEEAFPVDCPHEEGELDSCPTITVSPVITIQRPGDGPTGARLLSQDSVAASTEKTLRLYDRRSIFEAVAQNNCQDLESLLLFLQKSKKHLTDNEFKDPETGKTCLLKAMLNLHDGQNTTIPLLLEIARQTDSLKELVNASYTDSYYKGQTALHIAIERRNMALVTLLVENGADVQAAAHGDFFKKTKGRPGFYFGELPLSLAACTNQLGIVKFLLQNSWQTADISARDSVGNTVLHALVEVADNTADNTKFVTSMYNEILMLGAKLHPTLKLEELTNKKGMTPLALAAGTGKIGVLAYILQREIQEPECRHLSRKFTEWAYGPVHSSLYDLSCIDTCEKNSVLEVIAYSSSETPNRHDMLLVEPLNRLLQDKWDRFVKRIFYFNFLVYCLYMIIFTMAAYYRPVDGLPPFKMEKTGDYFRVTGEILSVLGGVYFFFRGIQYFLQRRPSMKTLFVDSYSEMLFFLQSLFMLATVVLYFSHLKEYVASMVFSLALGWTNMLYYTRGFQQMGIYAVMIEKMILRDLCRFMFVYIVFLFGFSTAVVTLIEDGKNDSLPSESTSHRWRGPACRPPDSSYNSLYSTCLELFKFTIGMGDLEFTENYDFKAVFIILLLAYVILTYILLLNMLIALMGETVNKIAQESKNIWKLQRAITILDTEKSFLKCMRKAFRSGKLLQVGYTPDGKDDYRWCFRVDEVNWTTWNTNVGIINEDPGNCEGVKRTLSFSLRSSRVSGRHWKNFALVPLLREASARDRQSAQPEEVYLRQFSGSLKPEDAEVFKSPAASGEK
Protocol: hVR1FLIPR (Fluorometric Image Plate Reader) Screening Assay
Transfected CHO cells, stably expressing hVR1 (15,000 cells/well) are seeded in 50 μL media in a black clear bottom 384 plate (Greiner) and grown in a humidified incubator (37° C., 2% CO2), 24-30 hours prior to experiment.
Subsequently, the media is removed from the cell plate by inversion and 2 μM Fluo-4 is added using a multidrop (Labsystems). Following the 40 min dye incubation in the dark at 37° C. and 2% CO2, the extracellular dye present is washed away using an EMBLA (Scatron), leaving the cells in 40 μL of assay buffer (1×HBSS, 10 mM D-Glucose, 1 mM CaCl2, 10 mM HEPES, 10×7.5% NaHCO3 and 2.5 mM Probenecid).
FLIPR Assay—IC50 Determination Protocol
For IC50 determinations the fluorescence is read using FLIPR filter 1 (em […]). A cellular baseline recording is taken for 30 seconds, followed by a 20 μL addition of 10, titrated half-log concentrations of the test compound, yielding cellular concentration ranging from 3 μM to 0.1 nM. Data is collected every 2 seconds for a further 5 min prior to the addition of a VR1 agonist solution: either 50 nM solution of capsaicin or MES (2-[N-morpholino] ethanesulfonic acid) buffer (pH 5.2), by the FLIPR pipettor. The FLIPR continues to collect data for a further 4 min. Compounds having antagonistic properties against the hVR1 will inhibit the increase in intracellular calcium in response to the capsaicin addition. This consequently leading to a reduction in fluorescence signal and providing a reduced fluorescence reading, compared with no compound, buffer controls. Data is exported by the FLIPR program as a sum of fluorescence calculated under the curve upon the addition of capsaicin. Maximum inhibition, Hill slope and IC50 data for each compound are generated.

[1] = test system: carrageenan-induced heat hyperalgesia; assay: Carrageenan model, heat plantar test (paw withdrawal latency); type: in vivo; conditions: rat, oral
[2] = test system: FCA-induced heat hyperalgesia; assay: Freund's Complete Adjuvant (FCA) model, heat plantar test (paw withdrawal latency); type: in vivo; conditions: rat, oral
[3] = tested at Tmax, reversal of heat hyperalgesia

Row | Structure (SMILES) | IC50 (aldose reductase) | IC50 (human VR1) | other results
1 | O=C1NC(=O)[C@]2(N1)C(=O)N(C/C=C/c1ccc(Cl)c(C(F)(F)F)c1)c1ccccc12 (single isomer, unassigned) [Enantiomer 2A] | 0.033 µM | 3.85 µM | 
2 | O=C1NC(=O)[C@]2(N1)C(=O)N(CC#Cc1ccc(Cl)c(Cl)c1)c1ccccc12 (single isomer, unassigned) [Enantiomer 3A] | 0.0723 µM | 15.5 µM | 
3 | O=C1NC(=O)[C@@]2(N1)C(=O)N(C/C=C/c1ccc(Cl)c(Cl)c1)c1ccccc12 (single isomer, unassigned) [Enantiomer 1B] | 0.758 µM | 0.043 µM | Extrapolated Emax ([1]; non-linear regression): 88%; EC80 ([1]; reversal of heat hyperalgesia): 10.7 µM; Emax observed ([1]; reversal of heat hyperalgesia): 76%; EC50 [1, 3]: 4.8 µM; ED50 [1, 3]: 10.6 µmol/kg; Extrapolated Emax ([2]; non-linear regression): >100%; EC80 ([2]; reversal of heat hyperalgesia): 100 µM; Emax observed ([2]; reversal of heat hyperalgesia): 100%; EC50 [2, 3]: 24 µM; ED50 [2, 3]: 52.8 µmol/kg
4 | O=C1NC(=O)[C@@]2(N1)C(=O)N(CC#Cc1ccc(Cl)c(Cl)c1)c1ccccc12 (single isomer, unassigned) [Enantiomer 3B] | 0.983 µM | 0.881 µM | 
5 | O=C1NC(=O)[C@@]2(N1)C(=O)N(C/C=C/c1ccc(Cl)c(C(F)(F)F)c1)c1ccccc12 (single isomer, unassigned) [Enantiomer 2B] | 3.3 µM | 0.241 µM | 
6 | O=C1NC(=O)[C@]2(N1)C(=O)N(C/C=C/c1ccc(Cl)c(Cl)c1)c1ccccc12 (single isomer, unassigned) [Enantiomer 1A] | 0.025 µM | 10 µM | 
